{
  "source": "patent US20080249136A1",
  "about": "“Antimicrobial Composition and Method” (priority 2005, published 2008)",
  "key": {"[1]": {"test_system": "Pseudomonas aeruginosa ATCC #10145", "test": "Efficacy (log kill) against Pseudomonas aeruginosa, 96-well assay block", "format": "cell-based", "procedure": "(§1) The cationic polymers are pH adjusted in the range of 6-7.5. It should be noted that the Ecopol polymers require an acidic environment for complete dissolution. Once the polymer is dissolved, NaOH can be used to bring the pH to the desired range.\n(§2) The efficacy of the antimicrobial combinations against Staphylococcus aureus ATCC #6538 and Pseudomonas aeruginosa ATCC #10145 is measured. Testing is done in 96-well 1.5 ml polypropylene assay blocks using 96-well polypropylene sealing mats for covering the samples during incubation. The individual wells in the 96-well assay block are identified as follows: 12 columns numbered 1-12 across the top row of wells on the block, and 8 rows lettered A-H on the first column of the block. Columns 1 and 2 are reserved to test the activity of the biocide in buffer (pH 7.2) in the absence of the cationic polymer. Columns 11 and 12 are always reserved as control, to verify growth of the microorganism in the absence of the biocide. The preparation of the assay blocks involves the following steps in chronological order:\n(§3) 1. Preparation of the biocide solution in an appropriate solvent at a concentration equal to 10 times the final concentration desired in row A; 2. Addition of predetermined amount of the stock biocide solution to each well in row A; 3. Addition of a predetermined amount of the solvent to rows B-H and wells 11A and 12A; 4. Serial dilution of the biocide, by transferring a predetermined amount of the solution from row A to row B, mixing, and repeating the transfer down all the rows. After the mixing step in row H, the transferring amount is taken out and disposed of; 5. Inoculation of the buffer and polymer solutions with the test organism. For bacteria, a 24-hour culture is used. Following the incubation period, the organism concentration in the medium is determined by reading the OD at 620 nm. This culture is used to inoculate the buffer and the polymer solution to a bacterial concentration of 1E6 cfu/ml. Fungal challenges are performed with fungal spores isolated from inoculated SDA slants. The spores are collected by swiping the slant with a sterile cotton swab and re-suspended in tryptic soy broth. Tween 80 is added to aid in spore separation and the suspension was homogenized. The spore concentration is obtained by use of a hemacytometer. This suspension is used to inoculate the buffer and the polymeric solutions to a spore concentration of 3-5E6 cfu/ml; 6. Addition of the inoculated buffer or polymer solution to each well. 7. Thorough mixing of the blends in each well; 8. Sampling for the time 0, 24 h, 48 h and 7 days reading is accomplished using a 96-well 300 μl polystyrene microplate. Tryptic Soy broth (TSB) is used for the bacterial studies and Malt (YM) broth buffered at pH 7.4 for fungal studies; 9. The microplates are incubated at 35° C. for bacteria and 30° C. for fungus, until the control samples show adequate growth; and 10. Data is recorded as the log reduction in microorganism concentration relative to the inoculum."}, "[2]": {"test_system": "Staphylococcus aureus ATCC #6538", "test": "Efficacy (log kill) against Staphylococcus aureus, 96-well assay block", "format": "cell-based", "procedure": "as §1, §2, §3"}},
  "data": [
    {"substance": "zinc pyrithione [ZPT]", "values": [
      {"measurement": "control of P. aeruginosa before 48 h", "setting": "[1]; 800 ppm active, before 48 h", "value": "no control"},
      {"measurement": "Log kill 24 h", "setting": "[1]; Active Conc. 46.8 ppm", "value": 0, "unit": "log"},
      {"measurement": "Log kill 48 h", "setting": "[1]; Active Conc. 46.8 ppm", "value": 0, "unit": "log"},
      {"measurement": "Log kill 7 days", "setting": "[1]; Active Conc. 46.8 ppm", "value": 2, "unit": "log"},
      {"measurement": "Log kill t0", "setting": "[1]; Active Conc. 46.8 ppm", "value": 0, "unit": "log"},
      {"measurement": "Log kill 24 h", "setting": "[1]; Active Conc. 533.3 ppm", "value": 0, "unit": "log"},
      {"measurement": "Log kill 48 h", "setting": "[1]; Active Conc. 533.3 ppm", "value": 1.5, "unit": "log"},
      {"measurement": "Log kill 7 days", "setting": "[1]; Active Conc. 533.3 ppm", "value": 3, "unit": "log"},
      {"measurement": "Log kill t0", "setting": "[1]; Active Conc. 533.3 ppm", "value": 0, "unit": "log"},
      {"measurement": "Log kill 24 h", "setting": "[1]; Active Conc. 800 ppm", "value": 0, "unit": "log"},
      {"measurement": "Log kill 48 h", "setting": "[1]; Active Conc. 800 ppm", "value": 2, "unit": "log"},
      {"measurement": "Log kill t0", "setting": "[1]; Active Conc. 800 ppm", "value": 0, "unit": "log"},
      {"measurement": "Log kill 24 h", "setting": "[2]; Active Conc. 5.9 ppm", "value": 0, "unit": "log"},
      {"measurement": "Log kill 48 h", "setting": "[2]; Active Conc. 5.9 ppm", "value": 1, "unit": "log"},
      {"measurement": "Log kill 7 days", "setting": "[2]; Active Conc. 5.9 ppm", "value": 1, "unit": "log"},
      {"measurement": "Log kill t0", "setting": "[2]; Active Conc. 5.9 ppm", "value": 0, "unit": "log"},
      {"measurement": "Log kill 24 h", "setting": "[2]; Active Conc. 29.6 ppm", "value": 0, "unit": "log"},
      {"measurement": "Log kill 48 h", "setting": "[2]; Active Conc. 29.6 ppm", "value": 1, "unit": "log"},
      {"measurement": "Log kill 7 days", "setting": "[2]; Active Conc. 29.6 ppm", "value": 1, "unit": "log"},
      {"measurement": "Log kill t0", "setting": "[2]; Active Conc. 29.6 ppm", "value": 0, "unit": "log"},
      {"measurement": "Log kill 24 h", "setting": "[2]; Active Conc. 100 ppm", "value": 0.5, "unit": "log"},
      {"measurement": "Log kill 48 h", "setting": "[2]; Active Conc. 100 ppm", "value": 1.5, "unit": "log"},
      {"measurement": "Log kill 7 days", "setting": "[2]; Active Conc. 100 ppm", "value": 2, "unit": "log"},
      {"measurement": "Log kill t0", "setting": "[2]; Active Conc. 100 ppm", "value": 1, "unit": "log"}
    ]}
  ]
}
